According to patent publication EP4752152A1, “STEROID COMPOUND, AND PREPARATION METHOD THEREFOR AND USE THEREOF” (Cholesgen (Shanghai) Co.Ltd., priority 2023, dated 2025):
In brackets after ≈: the same amount, converted by molar mass. Like-named read-outs stand apart in the source and are kept apart here.

Legend:
SREBP pathway = test: SREBP luciferase reporter gene system (SRE-luciferase assay); assay type: cell-based, human; conditions: Huh-7/SRE-luc cells, sterol-deficient medium, 0.01-10 µM
How it was run: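 Readout was SRE-driven luciferase normalised to GFP fluorescence in lysates of stably transfected Huh-7/SRE-luc hepatoma cells. Compounds (0.01, 0.03, 0.1, 0.3, 1.0, 3.0, 10 µM; DMSO control) were applied for 16 h in sterol-depleted medium with 2 µM lovastatin and 10 µM mevalonate; IC50 from variable-slope fit.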

[1] = Solubility in fasted-state simulated intestinal fluid (FaSSIF); assay type: physicochemical; conditions: FaSSIF pH 6.5, 300 µM sample solution, room temperature
Protocol: Compound powder was dissolved in DMSO to prepare a 10.0 mM stock solution for later use. 0.021 g NaOH, 0.198 g NaH2PO4, and 0.309 g NaCl were weighed and added to 50.0 mL of ultrapure water. After thorough mixing, the pH was adjusted to 6.5 using HCl or NaOH. Then, 0.112 g of FaSSIF powder was added. After complete dissolution, the solution was allowed to stand at room temperature for 2 hours for later use. A certain volume of the compound stock solution was added to a certain volume of FaSSIF to prepare a 300 µM sample solution, which was mixed at room temperature under 1000 rpm for 1 hour. After 1 hour, the sample was centrifuged, and a certain volume of supernatant was taken. The termination solution was added to precipitate the sample, which was then thoroughly mixed and centrifuged for 20 minutes. The supernatant was then taken again, diluted with dilution solution, and then analyzed by liquid chromatography-tandem mass spectrometry (LC-MS/MS). The concentration of the test compound in the samples was quantitatively determined using LC-MS/MS. Table 3: FaSSIF solubility results of compounds from some examples

[2] = test system: Fatty Acid Synthase (FASN) gene; test: Inhibition of FASN gene expression (qPCR) in Huh-7 cells; assay type: cell-based, human; conditions: read-out: FASN IC50
How it was run: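 IC50 derived by four-parameter fit of FASN expression inhibition versus DMSO, measured by RT-qPCR. Compound exposure lasted 16 h at five 3-fold concentrations from 3000 nM, applied to Huh-7 cells in sterol-depleting medium with 5% LPDS, 2 µM lovastatin and 10 µM mevalonate.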

[3] = Metabolic stability experiment of mouse liver microsomes; assay type: in vitro ADME
Protocol: PB solution (100 mM), MgCl2 solution (300 mM), NADPH solution (2.04 mM), and mouse liver microsome (SHQY catalog number: M1000, batch number: 2110330) solution (1.00 mg/mL) were prepared respectively. […] Then, 100 µL of mouse liver microsome solution was added to a 96-well sample plate. For the 0 min sample, acetonitrile solution containing the internal standard was first added; then, 2 µL of 100 µM working solution was added; followed by the addition of 98 µL of pre-warmed 2.04 mM NADPH at 37°C. For the 5 min, 15 min, 30 min, 45 min, and 60 min samples, 2 µL of 100 µM working solution was first added; followed by the addition of 98 µL of pre-warmed 2.04 mM NADPH at 37°C to initiate the reaction; upon reaching the respective time points, a solution of acetonitrile containing the internal standard was added to terminate the reaction. For the NCF60 sample, 2 µL of 100 µM working solution was first added; followed by the addition of 98 µL of pre-warmed PB at 37°C to initiate the reaction; upon reaching the respective time points, a solution of acetonitrile containing the internal standard was added to terminate the reaction. During the experiment, all samples were incubated in a 37°C water bath. All samples were shaken on an oscillator at 800 rpm for 10 min, then centrifuged at 3200 g for 20 min. The supernatant was aspirated, diluted with deionized water at the corresponding ratio, and analyzed by LC-MS/MS. The remaining percentage of the compound at each time point was obtained by dividing the peak area ratio of the compound at 5, 15, 30, 45, and 60 min by the peak area ratio at 0 min. The half-life (T1/2) of the compound was then calculated using Excel. Table 2: Mouse liver microsome stability results of compounds from some examples

[4] = Huh-7 cells, starvation medium, 16 hours, qPCR, class symbols
[5] = FaSSIF, pH 6.5, fassif, kinetic from dmso stock
[6] = Homo sapiens, Huh-7, 16 h, Huh-7 cells, starvation medium, 16 hours, qPCR, class symbols

| Compound | IC50 (SREBP pathway; Homo sapiens, Huh-7, 16 h) [µM] | solubility at 1 h [1, 5] [µM] | IC50 [2, 6] [nM] | further results |
| --- | --- | --- | --- | --- |
| COc1nc(F)ccc1C(O)CCC[C@@H](C)[C@H]1CC[C@H]2[C@H]3[C@H](CC[C@]12C)[C@@]1(C)CC[C@H](O)[C@H](O)[C@@H]1CC3(F)F (single isomer, unassigned) [Compound 189, (1R,3aS,3bS,5aR,6R,7S,9aR,9bS,11aR)-4,4-difluoro-1-[(2R,6R)-6-(6-fluoro-2-methoxypyridin-3-yl)-6-hydroxyhexan-2-yl]-9a,11a-dimethylhexadecahydro-1H-cyclopenta[1,2-a]phenanthrene-6,7-diol or (1R,3aS,3bS,5aR,6R,7S,9aR,9bS,11aR)-4,4-difluoro-1-[(2R,6S)-6-(6-fluoro-2-methoxypyridin-3-yl)-6-hydroxyhexan-2-yl]-9a,11a-dimethylhexadecahydro-1H-cyclopenta[1,2-a]phenanthrene-6,7-diol] | – | – | – | IC50 (SREBP pathway; 16 hours): 0.0231 µM; solubility at 1 h ([1]; 60 min): 157.08 µM (≈ 87 µg/mL); IC50 [2, 4]: < 200 nM |
| COc1cc(F)nc(OC)c1[C@@H](O)CCC[C@@H](C)[C@H]1CC[C@H]2[C@H]3[C@H](CC[C@]12C)[C@@]1(C)CC[C@H](O)[C@H](O)[C@@H]1CC3(F)F (single isomer, unassigned) [Compound 263] | 0.032 | 63 (≈ 36.8 µg/mL) | < 200 | – |
| COc1cccc(F)c1C(O)CCC[C@@H](C)[C@H]1CC[C@H]2[C@@H]3CC[C@H]4[C@@H](O)[C@@H](O)CC[C@]4(C)[C@H]3CC[C@]12C (stereo partly drawn) [Compound 20, 24-[(2-Fluoro-6-methoxyphenyl)(hydroxy)methyl]-5α-cholane-3β,4β-diol] | 0.23 | – | – | half-life at 1 µM [3]: 0.498 h |
| COc1cccc(F)c1C(O)CC[C@@H](C)[C@H]1CC[C@H]2[C@H]3[C@H](CC[C@]12C)[C@@]1(C)CC[C@H](O)[C@H](O)[C@@H]1CC3(F)F (stereo partly drawn) [Compound 333, (1R,3aS,3bS,5aR,6R,7S,9aR,9bS,11aR)-4,4-difluoro-1-[(2R)-5-(2-fluoro-6-methoxyphenyl)-5-hydroxypentan-2-yl]-9a,11a-dimethylhexadecahydro-1H-cyclopenta[1,2-a]phenanthrene-6,7-diol] | 0.118 | 148 (≈ 79.7 µg/mL) | 200 to 500 | – |
| C[C@H](CCCC(O)c1ccc2c(n1)OC(F)(F)O2)[C@H]1CC[C@H]2[C@H]3[C@H](CC[C@]12C)[C@@]1(C)CC[C@H](O)[C@H](O)[C@@H]1CC3(F)F (single isomer, unassigned) [Compound 265] | – | 107 (≈ 62.9 µg/mL) | – | IC50 (SREBP pathway; 16 hours): 0.006 µM; IC50 ([2]; Homo sapiens, Huh-7, 16 h): < 200 nM |
| CCOc1nc(F)ccc1[C@H](O)CCC[C@@H](C)[C@H]1CC[C@H]2[C@H]3[C@H](CC[C@]12C)[C@@]1(C)CC[C@H](O)[C@H](O)[C@@H]1CC3(F)F (single isomer, unassigned) [Compound 283] | 0.027 | 288 (≈ 163 µg/mL) | < 200 | – |
| COc1cc(F)nc(F)c1[C@@H](O)CCC[C@@H](C)[C@H]1CC[C@H]2[C@H]3[C@H](CC[C@]12C)[C@@]1(C)CC[C@H](O)[C@H](O)[C@@H]1CC3(F)F (single isomer, unassigned) [Compound 234] | 0.029 | 49.3 (≈ 28.2 µg/mL) | < 200 | – |
| C[C@H](CCC1CC(N)C1)[C@H]1CC[C@H]2[C@@H]3CC[C@H]4C[C@@H](O)CC[C@]4(C)[C@H]3CC[C@]12C (stereo partly drawn) [Compound 136, (20R)-20-[2-(3-aminocyclobutyl)ethyl]-5α-pregnan-3β-ol] | – | – | – | half-life at 1 µM [3]: 1.6 h |
| COc1nc(F)ccc1[C@@H](O)CC[C@@H](C)[C@H]1CC[C@H]2[C@H]3[C@H](CC[C@]12C)[C@@]1(C)CC[C@H](O)[C@H](O)[C@@H]1CC3(F)F [Compound 337, (1R,3aS,3bS,5aR,6R,7S,9aR,9bS,11aR)-4,4-difluoro-1-[(2R,5S)-5-(6-fluoro-2-methoxypyridin-3-yl)-5-hydroxypentan-2-yl]-9a,11a-dimethylhexadecahydro-1H-cyclopenta[1,2-a]phenanthrene-6,7-diol] | 0.155 | 246 (≈ 133 µg/mL) | < 200 | – |
| COc1nc(F)ccc1[C@H](O)CC[C@@H](C)[C@H]1CC[C@H]2[C@H]3[C@H](CC[C@]12C)[C@@]1(C)CC[C@H](O)[C@H](O)[C@@H]1CC3(F)F [Compound 338, (1R,3aS,3bS,5aR,6R,7S,9aR,9bS,11aR)-4,4-difluoro-1-[(2R,5R)-5-(6-fluoro-2-methoxypyridin-3-yl)-5-hydroxypentan-2-yl]-9a,11a-dimethylhexadecahydro-1H-cyclopenta[1,2-a]phenanthrene-6,7-diol] | 0.143 | 34.7 (≈ 18.7 µg/mL) | < 200 | – |
| C[C@H](CCCC(O)c1cccc2c1OC(F)(F)O2)[C@H]1CC[C@H]2[C@H]3[C@H](CC[C@]12C)[C@@]1(C)CC[C@H](O)[C@H](O)[C@@H]1CC3(F)F (single isomer, unassigned) [Compound 195, (1R,3aS,3bS,5aR,6R,7S,9aR,9bS,11aR)-1-[(2R,6R)-6-(2,2-difluorobenzo[d][1,3]dioxol-4-yl)-6-hydroxyhexan-2-yl]-4,4-difluoro-9a,11a-dimethylhexadecahydro-1H-cyclopenta[1,2-a]phenanthrene-6,7-diol or (1R,3aS,3bS,5aR,6R,7S,9aR,9bS,11aR)-1-[(2R,6S)-6-(2,2-difluorobenzo[d][1,3]dioxol-4-yl)-6-hydroxyhexan-2-yl]-4,4-difluoro-9a,11a-dimethylhexadecahydro-1H-cyclopenta[1,2-a]phenanthrene-6,7-diol] | – | 244 (≈ 143 µg/mL) | – | IC50 (SREBP pathway; 16 hours): 0.067 µM; IC50 [2, 4]: < 200 nM |
| C[C@H](CCCC(O)c1cccc2c1nnn2C)[C@H]1CC[C@H]2[C@H]3[C@H](CC[C@]12C)[C@@]1(C)CC[C@H](O)[C@H](O)[C@@H]1CC3(F)F (stereo partly drawn) [Compound 272, (1R,3aS,3bS,5aR,6R,7 S,9aR,9bS,11aR)-4,4-Difluoro-1-[(2R)-6-hydroxy-6-(1-methylbenzo[d][1,2,3]triazol-4-yl)hexan-2-yl]-9a,11a-dimethylhexadecahyd ro-1H-cyclopenta[1,2-a]phenanthrene-6,7-diol] | 0.116 | 225 (≈ 126 µg/mL) | < 200 | – |
| COc1cc(F)ccc1C(O)CCC[C@@H](C)[C@H]1CC[C@H]2C3=C(F)C[C@H]4[C@@H](O)[C@@H](O)CC[C@]4(C)[C@H]3CC[C@]12C (stereo partly drawn) [Compound 36, (1R,3aR,5aR,6R,7S,9aR,9bR,11aR)-4-fluoro-1-[(2R)-6-(4-fluoro-2-methoxyphenyl)-6-hydroxyhexan-2-yl]-9a,11a-dimethyl-2,3,3a,5,5a,6,7,8,9,9a,9b,10,11,11a-tetradecahydro-1H-cyclopenta[1,2-a]phenanthrene-6,7-diol] | 0.2 | – | – | half-life at 1 µM [3]: > 3.1 h |
| COc1nc(F)ccc1C(O)CCC[C@@H](C)[C@H]1CC[C@H]2[C@H]3[C@H](CC[C@]12C)[C@@]1(C)CC[C@H](O)[C@H](O)[C@@H]1CC3(F)F (single isomer, unassigned) [Compound 188, (1R,3aS,3bS,5aR,6R,7S,9aR,9bS,11aR)-4,4-difluoro-1-[(2R,6S)-6-(6-fluoro-2-methoxypyridin-3-yl)-6-hydroxyhexan-2-yl]-9a,11a-dimethylhexadecahydro-1H-cyclopenta[1,2-a]phenanthrene-6,7-diol or (1R,3aS,3bS,5aR,6R,7S,9aR,9bS,11aR)-4,4-difluoro-1-[(2R,6R)-6-(6-fluoro-2-methoxypyridin-3-yl)-6-hydroxyhexan-2-yl]-9a,11a-dimethylhexadecahydro-1H-cyclopenta[1,2-a]phenanthrene-6,7-diol] | – | 139 (≈ 76.9 µg/mL) | < 200 | IC50 (SREBP pathway; 16 hours): 0.142 µM |
